In paper PMC4506051, “Pharmacokinetic Profiles of Active Ingredients and Its Metabolites Derived from Rikkunshito, a Ghrelin Enhancer, in Healthy Japanese Volunteers: A Cross-Over, Randomized Study” (PLoS ONE, 2015):
Like-named read-outs stand apart in the source and are kept apart here.

What was measured:
[1] = test system: ghrelin secretion; conditions: cited from earlier work
[2] = test system: cisplatin-induced anorexia model; conditions: cited from earlier work; for Acylated ghrelin level in blood: oral administration, cisplatin-induced anorexia model
[3] = Stability of ingredients in gastric pH solution (pH 1.2, 37°C); type: physicochemical
Description: Rikkunshito gradually dissolved in acidic solution (pH 1.2) at 37°C, and the concentration of atractylodin after adding 0.25, 0.5, 1, and 2 h was measured by gas chromatography–mass spectrometry.

[4] = test system: 5-HT2BR; design: method as in PMID 18439428; conditions: cited from earlier work
[5] = Formation of ingredients derived from rikkunshito in formulation, blood, and urine (S11 Table summary); conditions: after rikkunshito administration, per ingredient in the formulation; for Formation of ingredients: form found in Urine: BQL = below the quantification limit
[6] = Exploratory trial: plasma concentration of rikkunshito ingredients after single oral rikkunshito 7.5 g; type: in vivo; conditions: for Plasma concentration, 0 h: 0 h (preadministration), single oral rikkunshito 7.5 g
Procedure, shortened: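 Healthy volunteers took a single oral rikkunshito dose of 7.5 g. Heparinized forearm blood was drawn at 0, 0.5, 1, 2, 4 and 8 h, with urine pooled pre-dose, 0–4 h and 4–8 h. Analytes were quantified in plasma by LC–MS/MS with internal standards, after solid-phase extraction and, where applied, 2 h β-glucuronidase treatment at 37°C.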

[7] = test system: 5-HT2CR; design: method as in PMID 18439428; conditions: cited from earlier work
[8] = Exploratory trial: ingredients in β-glucuronidase (enzyme)-treated plasma; type: in vivo, human; conditions: rikkunshito 7.5 g; for concentration at 0.5 h / concentration at 1 h / concentration at 2 h / concentration at 4 h / concentration at 8 h: plasma; for concentration at 0.5 h / concentration at 1 h / concentration at 2 h / concentration at 4 h / concentration at 8 h / Plasma concentration in enzyme-treated plasma, 0 h: β-glucuronidase-treated, mean ± S.D., n = 4; for concentration at 2 h: read-out: Plasma concentration in enzyme-treated plasma, 2 h; for concentration at 4 h: read-out: Plasma concentration in enzyme-treated plasma, 4 h; for concentration at 8 h: read-out: Plasma concentration in enzyme-treated plasma, 8 h; for Plasma concentration in enzyme-treated plasma, 0 h: 0 h (preadministration)
Description: In the first exploratory trial, 20-mL blood samples were collected from the cutaneous vein in the subjects’ forearm via a blood sampling tube that contained heparin at 0 (preadministration), 0.5, 1, 2, 4, and 8 h after a single oral administration of rikkunshito (Lot E24652). The dose of rikkunshito used in this trial was 7.5 g/day, which is the clinical daily dose, to widely explore rikkunshito-derived ingredients that enter the blood. Along with plasma, urine samples were collected at three points: between dinner and bedtime (preadministration), between 0 and 4 h after administration, and between 4 and 8 h after administration. The blood was immediately centrifuged at 1700 ×g for 10 min to obtain plasma. Plasma and urine fractions were stored at −80°C or lower until analysis.
For quantification of 30 ingredients other than atractylodin and synephrine, 25 µL of standard solution or methanol was added to 500 µL plasma or urine samples followed by mixing. Atractylenolide III or digoxin (IS) solution (50 μL) was added to the solutions followed by mixing. For urine, 400 µL of blank plasma was added to the solutions. Ammonium acetate solution (100 mM, 100 or 400 µL) was added to the solutions followed by mixing. For enzymatic treatment, plasma and urine samples were incubated with β-glucuronidase (100 units in 100 mM ammonium acetate) for 2 h at 37°C. A solid-phase cartridge (OASIS HLB, 30 mg/1cc, Waters) was conditioned with methanol and 10 mM ammonium acetate solution, and the samples were loaded onto the cartridge. The cartridge was washed water : methanol (9:1, v/v), and 1.5 mL of methanol and 30 µL of propylene glycol were added to the cartridge to elute the analytes. The mixtures were dried at 25°C under a stream of nitrogen gas. Furthermore, 100 μL of 10 mM ammonium acetate : methanol (8:2, v/v) was added to the dried samples followed by mixing and sonication. The solutions were filtered (0.22 µm) and followed by injection into the LC–MS/MS system. […] Those analytical conditions are summarized in S2 Table and S3 Table.

[9] = Exploratory trial: amount of rikkunshito ingredients in urine; type: in vivo, human; conditions: mean ± S.D., n = 4; for Amount in urine, 0–4 h: 0–4 h after single oral rikkunshito 7.5 g; for Amount in urine, 4–8 h: 4–8 h after single oral rikkunshito 7.5 g; for Amount in urine, Pre: preadministration (between dinner and bedtime)
Procedure, shortened: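 Subjects took single oral 7.5 g rikkunshito; urine collected pre-dose and 0–4 h and 4–8 h post-dose, stored at −80 °C or lower. Synephrine quantified by LC–MS/MS after plate cleanup with erythromycin IS; other ingredients after β-glucuronidase (2 h, 37 °C) and HLB solid-phase extraction.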

[10] = Exploratory trial: ingredients in β-glucuronidase (enzyme)-treated urine; type: in vivo, human; conditions: β-glucuronidase-treated, mean ± S.D., n = 4
Procedure, shortened: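 Healthy subjects took a single oral 7.5 g dose of rikkunshito; heparinised plasma drawn at 0–8 h and urine collected pre-dose, 0–4 h and 4–8 h. Samples incubated with β-glucuronidase (100 units) 2 h at 37°C, solid-phase extracted and quantified by LC–MS/MS.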

[11] = test system: butyrylcholinesterase; conditions: cited from earlier work
[12] = oral administration at a dose of 4.0 mg/kg
[13] = 1 h after single oral rikkunshito 7.5 g, mean ± S.D., n = 4
[14] = 4 h after single oral rikkunshito 7.5 g, mean ± S.D., n = 4
[15] = 8 h after single oral rikkunshito 7.5 g, mean ± S.D., n = 4

Row | SMILES | Known pharmacology activities: ghrelin secretion [1] | Acylated ghrelin level in blood [2] | Stability in gastric pH solution, Quantitative value ([3]; 0.5 h, pH 1.2) [ng/mL] | Stability in gastric pH solution, Quantitative value ([3]; 1 h, pH 1.2) [ng/mL] | Stability in gastric pH solution, Quantitative value ([3]; 2 h, pH 1.2) [ng/mL] | 5-HT2BR inhibitory/antagonistic activity [4] | Formation of ingredients: form found in Blood [5] | Formation of ingredients: form found in Urine [5] | Plasma concentration, 0 h ([6]; mean ± S.D., n = 4) | concentration at 0.5 h ([8]; human, oral) [ng/mL] | concentration at 1 h ([8]; human, oral) [ng/mL] | concentration at 2 h ([8]; human, oral) [ng/mL] | concentration at 4 h ([8]; human, oral) [ng/mL] | concentration at 8 h ([8]; human, oral) [ng/mL] | Plasma concentration in enzyme-treated plasma, 0 h [8] | Amount in urine, 0–4 h [9] | Amount in urine, 4–8 h [9] [ng] | Amount in urine, Pre [9] | Plasma concentration, 1 h [6, 13] | Plasma concentration, 4 h [6, 14] | further results
1 | COc1ccc(-c2oc3c(OC)c(OC)c(OC)c(OC)c3c(=O)c2OC)cc1OC [Heptamethoxyflavone, 3,3′,4′,5,6,7,8-heptamethoxyflavone] | Ghrelin secretion promoting activity [14, 15] | suppressed the decrease of the acylated ghrelin level in blood in a concentration-dependent manner | 25.5 | 30.7 | 28.7 | most potent 5-HT2BR antagonistic activity among all rikkunshito ingredients | Heptamethoxyflavone | BQL | BQL | – | – | – | – | – | – | – | – | – | – | – | concentration at 0.5 h ([6]; human, plasma, 0.5 h after single oral rikkunshito 7.5 g, mean ± S.D., n = 4, read-out: Plasma concentration, 0.5 h): 0.171 ± 0.18 ng/mL; concentration at 1 h ([6]; human, plasma, 1 h after single oral rikkunshito 7.5 g, mean ± S.D., n = 4): 0.253 ± 0.301 ng/mL; concentration at 2 h ([6]; human, plasma, 2 h after single oral rikkunshito 7.5 g, mean ± S.D., n = 4, read-out: Plasma concentration, 2 h): 0.157 ± 0.187 ng/mL; concentration at 4 h ([6]; human, plasma, 4 h after single oral rikkunshito 7.5 g, mean ± S.D., n = 4, read-out: Plasma concentration, 4 h): 0.0569 ± 0.0821 ng/mL; concentration at 8 h ([6]; human, plasma, 8 h after single oral rikkunshito 7.5 g, mean ± S.D., n = 4, read-out: Plasma concentration, 8 h): 0.00613 ± 0.0123 ng/mL
2 | O=C(/C=C/c1ccc(O)cc1)c1ccc(O)cc1O [Isoliquiritigenin] | Ghrelin secretion promoting activity [14, 15] | suppressed the decrease of the acylated ghrelin level in blood in a concentration-dependent manner | 15.2 | 15.5 | 15.2 | inhibits | – | – | BQL | 0.0872 ± 0.0221 | 0.0555 ± 0.0187 | 0.0606 ± 0.0774 | 0.0698 ± 0.0335 | 0.0238 ± 0.0354 | BQL | 741 ± 393 ng | 1010 ± 451 | 0.688 ± 1.38 ng | BQL | BQL | 5-HT2CR inhibitory activity [7]: inhibits; 5-HT2CR inhibitory activity ([7]; listed as isoliquiritigenin): inhibit; Cmax ([8]; human, oral, β-glucuronidase-treated plasma, four subjects, read-out: C max in enzyme-treated plasma): 0.0872 ng/mL; Appetite following cisplatin administration [2, 12]: improves decreased appetite; Plasma ghrelin concentration following cisplatin administration [2, 12]: inhibits a decrease in plasma ghrelin concentration; 5-HT2BR inhibitory/antagonistic activity ([4]; listed as isoliquiritigenin): inhibit; Plasma concentration, 8 h [6, 15]: BQL; concentration at 0.5 h ([6]; human, in vivo, po): 0.0153 ng/mL; concentration at 2 h ([6]; human, in vivo, po): 0.0171 ± 0.0343 ng/mL; Plasma concentration, 0.5 h ([6]; human, in vivo, po, 0.5 h): 0.0153 ± 0.018 ng/mL; Amount in enzyme-treated urine, 0–4 h ([10]; 0–4 h after rikkunshito 7.5 g): 3060 ± 348 ng; Amount in enzyme-treated urine, 4–8 h ([10]; 4–8 h after rikkunshito 7.5 g): 5630 ± 2210 ng; Amount in enzyme-treated urine, Pre ([10]; preadministration): 16.0 ± 17.4 ng
3 | O=C1C[C@@H](c2ccc(O)cc2)Oc2cc(O)cc(O)c21 [Naringenin] | – | – | 2030 | 2140 | 1990 | most potent 5-HT2BR antagonistic activity among all rikkunshito ingredients | Naringenin Conjugate metabolites of naringenin^a | Naringenin | – | 0.311 ± 0.211 | 0.261 ± 0.188 | 0.351 ± 0.311 | 0.861 ± 0.749 | 0.156 ± 0.234 | BQL | BQL | 2380 ± 2940 | BQL | – | – | Amount in urine, 4–8 h ([9]; listed as naringenin): 2,380 ng; concentration at 0 h ([6]; human, in vivo, po): 0.378 ± 0.755 ng/mL; concentration at 0.5 h ([6]; human, in vivo, po): 0.0358 ± 0.0715 ng/mL; concentration at 2 h ([6]; human, in vivo, po): 0.0813 ± 0.105 ng/mL; concentration at 4 h ([6]; human, in vivo, po): 0.0715 ± 0.0831 ng/mL; Plasma concentration, 1 h ([6]; in vivo, po): BQL; Plasma concentration, 8 h ([6]; in vivo, po): BQL
4 | C=C(CC[C@@H](C(=O)O)[C@H]1[C@H](O)C[C@@]2(C)C3=C(CC[C@]12C)[C@@]1(C)CC[C@H](OC(C)=O)C(C)(C)[C@@H]1CC3)C(C)C [Pachymic acid] | – | – | – | – | – | – | Pachymic acid | BQL | 0.14 ± 0.184 ng/mL | – | – | – | – | – | – | – | – | – | 0.127 ± 0.178 ng/mL | 0.0905 ± 0.181 ng/mL | Butyrylcholinesterase inhibition [11]: inhibit butyrylcholinesterase; Known pharmacology activities: ghrelin metabolizing enzyme [11]: Ghrelin metabolizing enzyme inhibitory effect [17]; Stability in gastric pH solution, Quantitative value ([3]; rikkunshito in acidic solution (pH 1.2) at 37°C, 0.5 h): 40.2 ng/mL; Stability in gastric pH solution, Quantitative value ([3]; rikkunshito in acidic solution (pH 1.2) at 37°C, 1 h): 46.5 ng/mL; Stability in gastric pH solution, Quantitative value ([3]; rikkunshito in acidic solution (pH 1.2) at 37°C, 2 h): 28.3 ng/mL; Plasma concentration, 0.5 h ([6]; 0.5 h after single oral rikkunshito 7.5 g, mean ± S.D., n = 4): 0.126 ± 0.185 ng/mL; Plasma concentration, 2 h ([6]; 2 h after single oral rikkunshito 7.5 g, mean ± S.D., n = 4): 0.205 ± 0.0765 ng/mL; Plasma concentration, 8 h [6, 15]: 0.103 ± 0.129 ng/mL
